# Assay results reported in patent US12459918B2, “Isoquinolinone derivatives serving as rock protein kinase inhibitors and use thereof” (GUANGZHOU OCUSUN OPHTHALMIC BIOTECHNOLOGY CO., LTD., priority 2019, dated 2025).
# Experiments:
# Type in all cases: in vivo
# [1] = tested on: New Zealand rabbits with normal intraocular pressure; assay: Ocular stimulation response examination by hand-held slit lamp, 14 days eye-drop administration; conditions: 14 consecutive days, 50 μL/eye/day
# Description: 42 male New Zealand rabbits were randomly divided into 7 groups, with 6 rabbits per group. Animals were randomly divided according to body weight Animals in 1-7 groups were eye-dropped with normal saline in the left eye and with solvent/control sample/test sample in the right eye respectively by a volume of 50 μL/eye, once per day for 14 consecutive days, and the day of administration was recorded as Day 1. The intraocular pressure of the animals was measured before Day 1 administration and in 1, 2, 4, 6, 8 and 10 hours after Day 1 administration, respectively (Table 8).
# Before the experiment (Day 2/Day 1), before daily administration during the administration (Days 1-14), and in 1, 2, 4, 24, 48 and 72 hours after the last administration (Day 14), the eyes of animals were examined for ocular stimulation response and fluorescein sodium by a hand-held slit lamp (scoring by referring to the scoring criteria).
# Before the experiment (Day 2/Day 1), before the first daily administration (Days 1-14) during the administration, and in 1, 2, 4, 24, 48 and 72 hours after the last administration, the eyes of animals were examined for ocular stimulation response by a hand-held slit lamp. The scoring criteria were as follows. […]
# [2] = tested on: New Zealand rabbits with normal intraocular pressure; assay: Intraocular pressure reduction experiment in New Zealand rabbits with normal intraocular pressure; conditions: for Intraocular pressure in the left eye: 20 mg/mL group, left eye (saline or solvent); for Intraocular pressure in the right eye: 20 mg/mL in right eye; for Reduction magnitude of intraocular pressure: 20 mg/mL, left minus right eye
# Excerpt: Experimental Example 2. Intraocular Pressure Reduction Experiment in New Zealand Rabbits with Normal Intraocular Pressure
# Rabbits with normal intraocular pressure were adopted to screen intraocular pressure reduction actions of the potential compounds by eye-drop administration.
# Male New Zealand rabbits, aged 97-127 days, weighted 2.65-3.5 kg, purchased from PizhouDongfang Breeding Co. Ltd.
# The male New Zealand rabbits were randomly divided into 8 rabbits/per group using a computer-generated randomization method Animals in each group were eye-dropped with different test samples in the right eye, and normal saline or solvent in the left eye, and the volume of the administration was both 50 μL/eye. The intraocular pressure of the animals was measured before administration and in 1, 2, 4, 6, 8 and 10 hours after the administration, respectively.
# [3] = tested on: New Zealand rabbits with acute ocular hypertension; assay: Intraocular pressure reduction experiment in New Zealand rabbits with acute ocular hypertension, experiment operation 1; conditions: 10 mg/mL both eyes; for Intraocular pressure in the left eye: left eye (not modeled); for Intraocular pressure in the right eye: right eye (induced ocular hypertension)
# Excerpt: Experimental Example 3. Intraocular Pressure Reduction Experiment in New Zealand Rabbits with Acute Ocular Hypertension
# Acute ocular hypertension of rabbits were induced by anterior chamber injection of a viscoelastic agent and the intraocular pressure reduction action of compound 60 and compound 63 at different concentrations were explored by eye-drop administration.
# Male New Zealand rabbits, aged 97-127 days, weighted 2.5-3.4 kg, purchased from PizhouDongfang Breeding Co. Ltd.
# Male New Zealand rabbits were randomly divided into 8 rabbits/per group according to body weight using a computer-generated randomization method. The animals in each group were injected with medical sodium hyaluronate gel in the anterior chamber of right eye in a single dose, 100 μL/eye, to induce ocular hypertension. In 5-15 minutes, 3 hours and 6 hours after right eye modeling, both eyes were dropped with a solvent, K-115 or test samples (compound 60 at different concentrations) at a volume of 50 μL/eye and intraocular pressure of the animals was measured before administration and in 1, 2, 4, 6, 8 and 10 hours after administration, respectively.
compound,measurement,setting,value
Cc1ccc(C(=O)OCn2cc(C)c3c(S(=O)(=O)N4CC[C@H](N)C4)cccc3c2=O)c(C)c1 [Compound 63],Evaluation of ocular stimulation,[1]; concentration range of 0.25-4 mg/mL,no stimulation
"C[C@H]1CNCCCN1S(=O)(=O)c1cccc2cncc(F)c12 [Compound K-115, reference compound]",Intraocular pressure in the left eye,[2]; 1 hour after administration,11.42 mmHg
same,Intraocular pressure in the left eye,[2]; 2 hours after administration,11.67 mmHg
same,Intraocular pressure in the left eye,[2]; 4 hours after administration,12.08 mmHg
same,Intraocular pressure in the left eye,[2]; 6 hours after administration,12.38 mmHg
same,Intraocular pressure in the left eye,[2]; 8 hours after administration,12.83 mmHg
same,Intraocular pressure in the left eye,[2]; 10 hours after administration,15.25 mmHg
same,Intraocular pressure in the left eye,[2]; before administration,12.29 mmHg
same,Intraocular pressure in the right eye,[2]; 1 hour after administration,7.54 mmHg
same,Intraocular pressure in the right eye,[2]; 2 hours after administration,8.63 mmHg
same,Intraocular pressure in the right eye,[2]; 4 hours after administration,10.83 mmHg
same,Intraocular pressure in the right eye,[2]; 6 hours after administration,11.83 mmHg
same,Intraocular pressure in the right eye,[2]; 8 hours after administration,12.63 mmHg
same,Intraocular pressure in the right eye,[2]; 10 hours after administration,14.92 mmHg
same,Intraocular pressure in the right eye,[2]; before administration,12.92 mmHg
same,Reduction magnitude of intraocular pressure,[2]; 1 hour after administration,3.88 mmHg
same,Reduction magnitude of intraocular pressure,[2]; 2 hours after administration,3.04 mmHg
same,Reduction magnitude of intraocular pressure,[2]; 4 hours after administration,1.25 mmHg
same,Reduction magnitude of intraocular pressure,[2]; 6 hours after administration,0.55 mmHg
same,Reduction magnitude of intraocular pressure,[2]; 8 hours after administration,0.2 mmHg
same,Reduction magnitude of intraocular pressure,[2]; 10 hours after administration,0.33 mmHg
same,Reduction magnitude of intraocular pressure,[2]; before administration,−0.63 mmHg
same,Intraocular pressure in the left eye,[3]; 1 hour after administration,5.88 mmHg
same,Intraocular pressure in the left eye,[3]; 2 hours after administration,5.96 mmHg
same,Intraocular pressure in the left eye,[3]; 4 hours after administration,8.29 mmHg
same,Intraocular pressure in the left eye,[3]; 6 hours after administration,10.54 mmHg
same,Intraocular pressure in the left eye,[3]; 8 hours after administration,11.88 mmHg
same,Intraocular pressure in the left eye,[3]; 10 hours after administration,11.79 mmHg
same,Intraocular pressure in the left eye,[3]; before administration,11.79 mmHg
same,Intraocular pressure in the right eye,[3]; 1 hour after administration,28.79 mmHg
same,Intraocular pressure in the right eye,[3]; 2 hours after administration,22.67 mmHg
same,Intraocular pressure in the right eye,[3]; 4 hours after administration,26.08 mmHg
same,Intraocular pressure in the right eye,[3]; 6 hours after administration,23.25 mmHg
same,Intraocular pressure in the right eye,[3]; 8 hours after administration,23.25 mmHg
same,Intraocular pressure in the right eye,[3]; 10 hours after administration,11.92 mmHg
same,Intraocular pressure in the right eye,[3]; before administration,11.92 mmHg
same,Evaluation of ocular stimulation,[1]; 4 mg/mL,no stimulation
